Reference: patent publication US10538532B2, “Hepatitis B antiviral agents” (ENANTA PHARMACEUTICALS, INC., priority 2016, dated 2020)
Read-outs that look alike come from different tables or passages of the source.

Columns and labels:
[1] = Compound toxicity, ATPLite total ATP levels; format: cell-based; details: human, HepAD38 cells, three days after compound addition, concentration reducing total ATP levels by 50% relative to no drug controls
Procedure: Methods: HepAD38 cells are maintained as previously reported (Ladner et al, Antimicrob. Agents Chemother. 1997, […], 1715). Briefly, cells are passaged upon attaining confluency in DMEM/F12 media in the presence of 10% FBS, Penn/Strep, 250 μg/mL G418, and 1 ug/ml tetracycline. Novel compounds are screened by first washing cells three times with PBS to remove tetracycline, and plating in 96 well plates at 35,000 cells/well. Compounds dissolved in DMSO are then diluted 1:200 into wells containing cells. Five days after compound addition, material is harvested for analysis. For an extended 8 day analysis, cells are plated and treated as described above, but media and compound are refreshed on d2 and d5 post initial treatment.
Compound toxicity is evaluated by seeding cells at 15,000 cells/well and treating with compound as described above.

HBV = experiment: HepAD38 antiviral assay: reduction of viral product accumulation (virion DNA by qPCR, HBsAg or HBeAg by ELISA); format: cell-based, hepatitis B virus; details: HepAD38 cells, five days after compound addition, concentration reducing viral product accumulation by 50% relative to no drug controls, read-out: HepAD38 EC50
Summary of the method: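 EC50 values represent 50% reduction of viral product accumulation in lysates or supernatants relative to untreated controls, with virion DNA read by qPCR and HBsAg/HBeAg by ELISA. Measurements followed 5 days of treatment, or 8 days with compound renewed on d2 and d5. Cells were tetracycline-depleted HepAD38 at 35,000/well, dosed with a 1:200 dilution of DMSO stocks.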

[2] = Hepatitis B virus, HePAD38, 120 h

Structure (SMILES)	CC50 at 3 days ([1]; class symbols)	EC50 (HBV; [2])	CC50 at 3 days ([1]; numeric bounds)	EC50 (HBV)
[N-]=[N+]=N[C@]1(CO)CC2CC[C@@H](C1)[C@H]2S(=O)(=O)c1cc(C(=O)Nc2cc(F)c(F)c(F)c2)ccc1Cl [Example 287]	> 25 µM	0.1 to 0.4 µM	–	–
COC(=O)N[C@H](C(=O)NC[C@@]1(O)CC2CC[C@@H](C1)[C@H]2S(=O)(=O)c1cc(C(=O)Nc2cc(F)c(F)c(F)c2)ccc1Cl)C(C)C [Example 288]	10 to 25 µM	0.1 to 0.4 µM	–	–
COC(=O)N1C[C@]2(CC3CC[C@@H](C2)[C@H]3S(=O)(=O)c2cc(C(=O)Nc3cc(F)c(F)c(F)c3)ccc2Cl)OC1=O [Example 289]	–	0.1 to 0.4 µM	> 12.5 µM	–
C=CCOC(=O)OC[C@]1(O)CC2CC[C@@H](C1)[C@H]2S(=O)(=O)c1cc(C(=O)Nc2cc(F)c(F)c(F)c2)ccc1Cl [Example 290]	> 25 µM	< 0.1 µM	–	–
N#CC[C@]1(O)CC2CC[C@@H](C1)[C@H]2S(=O)(=O)c1cc(C(=O)Nc2cc(F)c(F)c(F)c2)ccc1Cl [Example 291]	10 to 25 µM	< 0.1 µM	–	–
N#C[C@]1(CO)CC2CC[C@@H](C1)[C@H]2S(=O)(=O)c1cc(C(=O)Nc2cc(F)c(F)c(F)c2)ccc1Cl [Example 292]	10 to 25 µM	< 0.1 µM	–	–
CS(=O)(=O)OC[C@@H]1CC2CC[C@@H](C1)[C@H]2S(=O)(=O)c1cc(C(=O)Nc2cc(F)c(F)c(F)c2)ccc1Cl [Example 293]	–	< 0.1 µM	> 6.25 µM	–
O=C(Nc1cc(F)c(F)c(F)c1)c1ccc(Cl)c(S(=O)(=O)[C@H]2CC3CCC(C2)[C@]3(O)CNS(=O)(=O)C2CC2)c1 [Example 294]	–	< 0.1 µM	> 6.25 µM	–
O=C(Nc1cc(F)c(F)c(F)c1)c1ccc(Cl)c(S(=O)(=O)[C@H]2CC3CCC(C2)[C@]3(O)CNS(=O)(=O)c2cccnc2)c1 [Example 295]	–	< 0.1 µM	> 12.5 µM	–
O=C(Nc1cc(F)c(F)c(F)c1)c1ccc(Cl)c(S(=O)(=O)[C@H]2CC3CCC(C2)[C@]3(O)CNS(=O)(=O)c2ccccn2)c1 [Example 296]	–	< 0.1 µM	> 6.25 µM	–
CC(C)(C)OC(=O)NC1CC2CC[C@@H](C1)[C@H]2S(=O)(=O)c1cc(C(=O)Nc2cc(F)c(F)c(F)c2)ccc1Cl (some centres unmarked) [Example 297]	–	< 0.1 µM	> 6.25 µM	–
NC1CC2CC[C@@H](C1)[C@H]2S(=O)(=O)c1cc(C(=O)Nc2cc(F)c(F)c(F)c2)ccc1Cl (some centres unmarked) [Example 298]	10 to 25 µM	0.1 to 0.4 µM	–	–
CS(=O)(=O)NC1CC2CC[C@@H](C1)[C@H]2S(=O)(=O)c1cc(C(=O)Nc2cc(F)c(F)c(F)c2)ccc1Cl (some centres unmarked) [Example 299]	> 25 µM	< 0.1 µM	–	–
COC(=O)N[C@@H](C(=O)NC1CC2CC[C@@H](C1)[C@H]2S(=O)(=O)c1cc(C(=O)Nc2cc(F)c(F)c(F)c2)ccc1Cl)C(C)C (some centres unmarked) [Example 300]	–	< 0.1 µM	> 6.25 µM	–
O=C(Nc1cc(F)c(F)c(F)c1)c1ccc(Cl)c(S(=O)(=O)[C@H]2CC3CCC(C2)[C@@]3(O)c2nccs2)c1 [Example 301]	10 to 25 µM	> 0.4 µM	–	–
O=C(Nc1cc(F)c(F)c(F)c1)c1ccc(Cl)c(S(=O)(=O)[C@H]2CC3CCC(C2)[C@]3(O)c2ncc[nH]2)c1 [Example 302]	10 to 25 µM	< 0.1 µM	–	–
O=C(Nc1cc(F)c(F)c(F)c1)c1ccc(Cl)c(S(=O)(=O)[C@H]2CC3CCC(C2)[C@H]3c2ncc[nH]2)c1 [Example 303]	< 10 µM	< 0.1 µM	–	–

Structure (SMILES)	CC50 at 3 days ([1]; class symbols)	EC50 (HBV; [2])	CC50 at 3 days ([1]; numeric bounds)	EC50 (HBV)
[N-]=[N+]=NC[C@@H]1CC2CC[C@@H](C1)[C@H]2S(=O)(=O)c1cc(C(=O)Nc2cc(F)c(F)c(F)c2)ccc1Cl [Example 304]	–	0.1 to 0.4 µM	> 6.25 µM	–
O=C1NC[C@@]2(CC3CC[C@@H](C2)[C@H]3S(=O)(=O)c2cc(C(=O)Nc3cc(F)c(F)c(F)c3)ccc2Cl)O1 [Example 306]	–	< 0.1 µM	> 12.5 µM	–
CS(=O)(=O)NC[C@]1(O)CC2CC[C@@H](C1)[C@H]2S(=O)(=O)c1cc(C(=O)Nc2cc(F)c(F)c(F)c2)ccc1Cl [Example 307]	> 25 µM	< 0.1 µM	–	–
O=C(Nc1cc(F)c(F)c(F)c1)c1ccc(Cl)c(S(=O)(=O)[C@H]2CC3CCC(C2)[C@]3(O)c2ccccn2)c1 [Example 308]	> 25 µM	< 0.1 µM	–	–
COC(=O)N[C@H]1C2CCC1C[C@@H](S(=O)(=O)c1cc(C(=O)Nc3cc(F)c(F)c(F)c3)ccc1Cl)C2 [Example 309]	> 25 µM	< 0.1 µM	–	–
CS(=O)(=O)N[C@@H]1C2CC[C@H]1C[C@H](S(=O)(=O)c1cc(C(=O)Nc3cc(F)c(F)c(F)c3)ccc1Cl)C2 [Example 310]	> 25 µM	< 0.1 µM	–	–
O=C(Nc1cc(F)c(F)c(F)c1)c1ccc(Cl)c(S(=O)(=O)[C@H]2C3CC[C@H]2C[C@H](Cn2ccnc2)C3)c1 [Example 312]	10 to 25 µM	< 0.1 µM	–	–
O=C(Nc1cc(F)c(F)c(F)c1)c1ccc(Cl)c(S(=O)(=O)[C@H]2C3CC[C@H]2C[C@](O)(Cn2cccn2)C3)c1 [Example 313]	–	< 0.1 µM	> 6.25 µM	–
O=C(Nc1cc(F)c(F)c(F)c1)c1ccc(Cl)c(S(=O)(=O)[C@H]2C3CC[C@H]2C[C@](O)(COCc2ccccn2)C3)c1 [Example 317]	< 10 µM	< 0.1 µM	–	–
O=C(Nc1cc(F)c(F)c(F)c1)c1ccc(Cl)c(S(=O)(=O)[C@H]2C3CC[C@H]2C[C@](O)(COCCO)C3)c1 [Example 319]	> 25 µM	< 0.1 µM	–	–
COC(=O)NC1CC2CC[C@@H](C1)[C@H]2S(=O)(=O)c1cc(C(=O)Nc2cc(F)c(F)c(F)c2)ccc1Cl (some centres unmarked) [Example 321]	> 25 µM	< 0.1 µM	–	–
O=C(Nc1cc(F)c(F)c(F)c1)c1ccc(Cl)c(S(=O)(=O)[C@H]2CC3CCC(C2)[C@]3(O)c2nccs2)c1 [Example 322]	10 to 25 µM	< 0.1 µM	–	–
O=C(Nc1cc(F)c(F)c(F)c1)c1ccc(Cl)c(S(=O)(=O)[C@H]2CC3CCC(C2)[C@]3(O)CO)c1 [Example 324]	–	–	> 12.5 µM	< 0.1 µM
Cn1ccnc1[C@]1(O)CC2CC[C@@H](C1)[C@H]2S(=O)(=O)c1cc(C(=O)Nc2cc(F)c(F)c(F)c2)ccc1Cl [Example 329]	–	< 0.1 µM	> 6.25 µM	–
O=C(Nc1cc(F)c(F)c(F)c1)c1ccc(Cl)c(S(=O)(=O)[C@H]2C3CC[C@H]2C[C@](O)(c2ncc(-c4ccccc4)[nH]2)C3)c1 [Example 330]	< 10 µM	< 0.1 µM	–	–
O=C(Nc1cc(F)c(F)c(F)c1)c1ccc(Cl)c(S(=O)(=O)[C@H]2CC3CCC(C2)[C@]3(O)c2cccnc2)c1 [Example 331]	10 to 25 µM	< 0.1 µM	–	–
O=C(Nc1cc(F)c(F)c(F)c1)c1ccc(Cl)c(S(=O)(=O)[C@H]2CC3CCC(C2)[C@]3(O)c2ccncc2)c1 [Example 332]	10 to 25 µM	< 0.1 µM	–	–
